Experimental data: ChEMBL document CHEMBL4507257, “Data for DCP probe ABT-100” (2021)

What was measured:
[1] = system: Phosphatidylinositol 4,5-bisphosphate 3-kinase catalytic subunit alpha isoform (Homo sapiens), P42336 [E542K]; conditions: Compound concentration 1000.0 nM
[2] = target: Cyclin-dependent kinase 2 homolog (Plasmodium falciparum (isolate 3D7)) (UniProt P61075); conditions: Compound concentration 1000.0 nM
[3] = target: Ephrin type-A receptor 8 (Homo sapiens) (UniProt P29322); conditions: Compound concentration 1000.0 nM
[4] = target: T1, Muscarinic acetylcholine receptor M1 (Homo sapiens) (UniProt P11229); conditions: Compound concentration 10.0 uM
T1 sequence (whole entry): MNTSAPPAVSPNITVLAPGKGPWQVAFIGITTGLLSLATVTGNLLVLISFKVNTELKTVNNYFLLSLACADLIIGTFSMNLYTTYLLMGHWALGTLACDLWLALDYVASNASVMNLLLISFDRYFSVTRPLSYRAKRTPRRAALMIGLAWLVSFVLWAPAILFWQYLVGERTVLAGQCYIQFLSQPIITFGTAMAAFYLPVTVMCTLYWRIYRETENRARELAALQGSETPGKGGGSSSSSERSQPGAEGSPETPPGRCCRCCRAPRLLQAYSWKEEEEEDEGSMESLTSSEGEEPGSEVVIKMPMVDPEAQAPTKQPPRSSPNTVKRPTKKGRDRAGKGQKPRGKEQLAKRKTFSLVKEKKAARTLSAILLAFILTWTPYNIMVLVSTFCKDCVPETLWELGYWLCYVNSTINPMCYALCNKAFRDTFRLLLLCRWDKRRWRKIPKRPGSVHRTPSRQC

[5] = target: Dual specificity protein kinase CLK3 (Homo sapiens) (UniProt P49761); conditions: Compound concentration 1000.0 nM
[6] = target: Serine/threonine-protein kinase Nek2 (Homo sapiens) (UniProt P51955); conditions: Compound concentration 1000.0 nM
[7] = system: Epidermal growth factor receptor (Homo sapiens), P00533 [G719C]; conditions: Compound concentration 1000.0 nM
[8] = target: Mitogen-activated protein kinase 8 (Homo sapiens) (UniProt P45983); conditions: Compound concentration 1000.0 nM
[9] = target: Mitogen-activated protein kinase 15 (Homo sapiens) (UniProt Q8TD08); conditions: Compound concentration 1000.0 nM
[10] = target: Phosphatidylinositol 4-phosphate 5-kinase type-1 alpha (Homo sapiens) (UniProt Q99755); conditions: Compound concentration 1000.0 nM
Sequence of Phosphatidylinositol 4-phosphate 5-kinase type-1 alpha (Homo sapiens) (Q99755 whole entry): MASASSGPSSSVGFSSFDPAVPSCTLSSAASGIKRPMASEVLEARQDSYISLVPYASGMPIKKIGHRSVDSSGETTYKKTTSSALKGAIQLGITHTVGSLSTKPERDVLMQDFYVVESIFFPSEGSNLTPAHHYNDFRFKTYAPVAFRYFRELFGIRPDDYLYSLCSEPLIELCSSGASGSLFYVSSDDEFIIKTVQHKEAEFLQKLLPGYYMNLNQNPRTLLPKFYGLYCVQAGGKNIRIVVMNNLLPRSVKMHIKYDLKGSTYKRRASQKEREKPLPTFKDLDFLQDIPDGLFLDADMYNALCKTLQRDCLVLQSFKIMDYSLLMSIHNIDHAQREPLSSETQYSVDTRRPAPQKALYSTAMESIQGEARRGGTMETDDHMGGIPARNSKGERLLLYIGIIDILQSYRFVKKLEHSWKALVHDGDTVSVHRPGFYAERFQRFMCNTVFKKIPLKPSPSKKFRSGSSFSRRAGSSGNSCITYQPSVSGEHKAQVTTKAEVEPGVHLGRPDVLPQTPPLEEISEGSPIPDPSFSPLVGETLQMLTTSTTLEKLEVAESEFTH

[11] = target: T2, Muscarinic acetylcholine receptor M4 (Homo sapiens) (UniProt P08173); conditions: Compound concentration 10.0 uM
T2 sequence (whole entry): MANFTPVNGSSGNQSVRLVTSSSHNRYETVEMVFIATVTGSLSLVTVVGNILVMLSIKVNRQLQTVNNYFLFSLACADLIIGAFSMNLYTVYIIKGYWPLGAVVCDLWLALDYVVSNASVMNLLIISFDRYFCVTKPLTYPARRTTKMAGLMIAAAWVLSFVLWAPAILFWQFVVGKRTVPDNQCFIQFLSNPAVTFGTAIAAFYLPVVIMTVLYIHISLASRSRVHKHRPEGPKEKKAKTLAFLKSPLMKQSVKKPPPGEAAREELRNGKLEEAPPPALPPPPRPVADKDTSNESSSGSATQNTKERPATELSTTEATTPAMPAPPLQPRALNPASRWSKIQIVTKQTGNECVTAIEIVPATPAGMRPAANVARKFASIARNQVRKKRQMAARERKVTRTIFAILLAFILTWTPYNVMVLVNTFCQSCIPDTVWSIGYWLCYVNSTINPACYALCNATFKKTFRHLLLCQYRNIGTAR

[12] = target: Phosphatidylinositol 4-phosphate 3-kinase C2 domain-containing subunit beta (Homo sapiens) (UniProt O00750); conditions: Compound concentration 1000.0 nM
[13] = target: T3, 5-hydroxytryptamine receptor 3A (Homo sapiens) (UniProt P46098); conditions: Compound concentration 10.0 uM
T3 sequence (whole entry): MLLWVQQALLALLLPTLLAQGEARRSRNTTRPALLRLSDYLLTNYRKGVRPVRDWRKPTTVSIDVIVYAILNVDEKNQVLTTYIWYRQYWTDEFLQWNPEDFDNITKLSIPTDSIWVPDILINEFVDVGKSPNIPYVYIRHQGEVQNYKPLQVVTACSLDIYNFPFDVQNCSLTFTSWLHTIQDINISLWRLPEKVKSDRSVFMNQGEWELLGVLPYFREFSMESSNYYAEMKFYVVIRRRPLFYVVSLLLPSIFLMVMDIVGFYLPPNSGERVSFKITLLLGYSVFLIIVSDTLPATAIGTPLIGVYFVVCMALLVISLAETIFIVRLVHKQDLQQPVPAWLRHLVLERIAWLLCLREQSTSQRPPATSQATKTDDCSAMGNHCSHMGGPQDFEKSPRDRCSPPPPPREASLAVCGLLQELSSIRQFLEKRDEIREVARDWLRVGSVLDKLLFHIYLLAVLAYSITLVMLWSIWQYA

[14] = target: Serine/threonine-protein kinase MARK1 (Homo sapiens) (UniProt Q9P0L2); conditions: Compound concentration 1000.0 nM
Sequence of Serine/threonine-protein kinase MARK1 (Homo sapiens) (Q9P0L2 whole entry, looked up): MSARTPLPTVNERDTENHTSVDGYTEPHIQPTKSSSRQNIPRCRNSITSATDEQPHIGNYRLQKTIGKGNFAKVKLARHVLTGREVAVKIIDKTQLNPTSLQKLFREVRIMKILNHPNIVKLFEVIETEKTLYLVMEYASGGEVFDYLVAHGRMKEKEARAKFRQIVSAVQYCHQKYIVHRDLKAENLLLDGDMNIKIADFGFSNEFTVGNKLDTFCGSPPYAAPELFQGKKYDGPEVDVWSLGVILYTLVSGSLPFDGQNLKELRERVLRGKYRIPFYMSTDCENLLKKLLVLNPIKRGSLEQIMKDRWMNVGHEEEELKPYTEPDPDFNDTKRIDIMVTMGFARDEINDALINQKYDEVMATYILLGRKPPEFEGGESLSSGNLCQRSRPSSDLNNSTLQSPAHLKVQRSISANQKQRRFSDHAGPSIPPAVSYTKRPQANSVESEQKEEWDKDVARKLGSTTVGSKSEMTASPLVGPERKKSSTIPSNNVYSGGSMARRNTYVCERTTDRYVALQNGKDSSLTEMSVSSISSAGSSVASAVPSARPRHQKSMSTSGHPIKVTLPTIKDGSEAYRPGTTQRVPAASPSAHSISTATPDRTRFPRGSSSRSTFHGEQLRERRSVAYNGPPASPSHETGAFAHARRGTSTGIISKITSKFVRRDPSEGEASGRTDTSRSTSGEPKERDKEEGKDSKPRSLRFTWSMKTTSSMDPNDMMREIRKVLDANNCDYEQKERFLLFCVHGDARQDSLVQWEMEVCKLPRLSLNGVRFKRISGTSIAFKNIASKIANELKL

[15] = target: Interleukin-1 receptor-associated kinase 1 (Homo sapiens) (UniProt P51617); conditions: Compound concentration 1000.0 nM
[16] = target: Rho-associated protein kinase 2 (Homo sapiens) (UniProt O75116); conditions: Compound concentration 1000.0 nM
[17] = system: Receptor-type tyrosine-protein kinase FLT3 (Homo sapiens), P36888 [UNDEFINED MUTATION]; conditions: Compound concentration 1000.0 nM
Sequence of Receptor-type tyrosine-protein kinase FLT3 (Homo sapiens), P36888 [UNDEFINED MUTATION] (P36888 whole entry, looked up, change not shown): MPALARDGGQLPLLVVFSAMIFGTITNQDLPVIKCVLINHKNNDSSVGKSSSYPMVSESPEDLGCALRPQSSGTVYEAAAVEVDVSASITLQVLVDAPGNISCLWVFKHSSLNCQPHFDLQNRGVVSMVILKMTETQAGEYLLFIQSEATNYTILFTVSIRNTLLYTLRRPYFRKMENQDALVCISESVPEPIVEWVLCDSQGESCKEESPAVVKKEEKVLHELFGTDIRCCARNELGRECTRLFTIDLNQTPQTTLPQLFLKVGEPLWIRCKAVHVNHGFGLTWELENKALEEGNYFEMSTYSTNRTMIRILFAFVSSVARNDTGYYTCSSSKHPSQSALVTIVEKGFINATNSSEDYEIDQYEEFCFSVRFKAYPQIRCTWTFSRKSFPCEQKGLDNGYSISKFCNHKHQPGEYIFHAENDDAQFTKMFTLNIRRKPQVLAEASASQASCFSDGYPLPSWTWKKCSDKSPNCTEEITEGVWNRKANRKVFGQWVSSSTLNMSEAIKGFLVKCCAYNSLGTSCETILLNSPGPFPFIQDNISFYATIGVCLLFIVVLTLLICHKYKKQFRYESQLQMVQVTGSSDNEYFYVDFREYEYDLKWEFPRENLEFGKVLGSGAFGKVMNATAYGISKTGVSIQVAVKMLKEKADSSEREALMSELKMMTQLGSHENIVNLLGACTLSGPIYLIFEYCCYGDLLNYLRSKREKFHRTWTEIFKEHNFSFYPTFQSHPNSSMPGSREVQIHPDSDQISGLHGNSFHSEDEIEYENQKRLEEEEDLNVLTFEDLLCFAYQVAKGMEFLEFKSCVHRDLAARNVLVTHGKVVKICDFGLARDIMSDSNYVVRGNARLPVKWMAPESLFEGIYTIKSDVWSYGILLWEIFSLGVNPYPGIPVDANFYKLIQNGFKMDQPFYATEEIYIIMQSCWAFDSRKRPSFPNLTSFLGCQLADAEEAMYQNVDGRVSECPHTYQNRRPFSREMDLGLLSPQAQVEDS

[18] = target: Peripheral plasma membrane protein CASK (Homo sapiens) (UniProt O14936); conditions: Compound concentration 1000.0 nM
Sequence of Peripheral plasma membrane protein CASK (Homo sapiens) (O14936 whole entry): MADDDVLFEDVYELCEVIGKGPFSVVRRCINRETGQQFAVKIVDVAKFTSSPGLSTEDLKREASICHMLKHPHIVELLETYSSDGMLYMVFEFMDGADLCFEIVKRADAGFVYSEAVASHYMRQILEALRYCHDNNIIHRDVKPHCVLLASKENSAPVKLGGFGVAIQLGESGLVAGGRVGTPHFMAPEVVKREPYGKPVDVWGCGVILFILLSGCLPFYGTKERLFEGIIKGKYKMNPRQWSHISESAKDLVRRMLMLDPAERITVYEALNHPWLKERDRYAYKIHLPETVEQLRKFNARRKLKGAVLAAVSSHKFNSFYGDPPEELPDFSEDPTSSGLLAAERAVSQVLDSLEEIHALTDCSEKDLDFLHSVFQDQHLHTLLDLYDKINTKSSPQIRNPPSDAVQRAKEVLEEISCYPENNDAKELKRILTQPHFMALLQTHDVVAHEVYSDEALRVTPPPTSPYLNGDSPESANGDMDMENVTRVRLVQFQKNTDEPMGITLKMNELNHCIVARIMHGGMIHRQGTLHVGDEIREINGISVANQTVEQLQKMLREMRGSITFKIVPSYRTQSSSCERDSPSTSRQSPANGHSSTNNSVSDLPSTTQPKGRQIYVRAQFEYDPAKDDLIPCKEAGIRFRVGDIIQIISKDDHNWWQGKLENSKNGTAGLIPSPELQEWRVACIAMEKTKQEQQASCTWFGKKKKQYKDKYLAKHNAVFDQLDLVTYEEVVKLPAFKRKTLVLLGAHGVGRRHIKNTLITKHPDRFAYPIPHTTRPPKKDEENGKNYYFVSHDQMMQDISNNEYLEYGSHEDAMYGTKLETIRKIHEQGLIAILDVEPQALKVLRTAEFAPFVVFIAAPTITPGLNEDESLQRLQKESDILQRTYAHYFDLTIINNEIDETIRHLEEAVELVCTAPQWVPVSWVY

[19] = target: Atypical kinase COQ8A, mitochondrial (Homo sapiens) (UniProt Q8NI60); conditions: Compound concentration 1000.0 nM
Sequence of Atypical kinase COQ8A, mitochondrial (Homo sapiens) (Q8NI60 163-647 limits assumed): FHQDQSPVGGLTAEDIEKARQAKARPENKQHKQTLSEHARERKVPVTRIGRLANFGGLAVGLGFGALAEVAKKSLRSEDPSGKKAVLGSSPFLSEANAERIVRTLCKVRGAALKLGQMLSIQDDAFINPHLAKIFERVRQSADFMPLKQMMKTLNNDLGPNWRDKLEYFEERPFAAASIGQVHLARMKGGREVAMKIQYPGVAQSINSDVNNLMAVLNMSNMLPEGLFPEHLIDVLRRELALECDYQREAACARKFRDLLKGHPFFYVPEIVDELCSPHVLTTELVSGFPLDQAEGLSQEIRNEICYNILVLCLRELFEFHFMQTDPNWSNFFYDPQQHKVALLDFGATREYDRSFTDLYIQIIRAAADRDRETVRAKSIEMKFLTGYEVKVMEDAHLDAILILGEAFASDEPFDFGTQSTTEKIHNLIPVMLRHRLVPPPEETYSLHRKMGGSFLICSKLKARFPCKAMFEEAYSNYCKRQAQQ

[20] = system: Epidermal growth factor receptor (Homo sapiens), P00533 [UNDEFINED MUTATION]; conditions: Compound concentration 1000.0 nM
[21] = target: Tyrosine-protein kinase ZAP-70 (Homo sapiens) (UniProt P43403); conditions: Compound concentration 1000.0 nM
[22] = target: Mitogen-activated protein kinase kinase kinase 6 (Homo sapiens) (UniProt O95382); conditions: Compound concentration 1000.0 nM
[23] = target: Serine/threonine-protein kinase D3 (Homo sapiens) (UniProt O94806); conditions: Compound concentration 1000.0 nM

Sequence of Phosphatidylinositol 4,5-bisphosphate 3-kinase catalytic subunit alpha isoform (Homo sapiens), P42336 [E542K] (P42336 whole entry E542K, canonical isoform): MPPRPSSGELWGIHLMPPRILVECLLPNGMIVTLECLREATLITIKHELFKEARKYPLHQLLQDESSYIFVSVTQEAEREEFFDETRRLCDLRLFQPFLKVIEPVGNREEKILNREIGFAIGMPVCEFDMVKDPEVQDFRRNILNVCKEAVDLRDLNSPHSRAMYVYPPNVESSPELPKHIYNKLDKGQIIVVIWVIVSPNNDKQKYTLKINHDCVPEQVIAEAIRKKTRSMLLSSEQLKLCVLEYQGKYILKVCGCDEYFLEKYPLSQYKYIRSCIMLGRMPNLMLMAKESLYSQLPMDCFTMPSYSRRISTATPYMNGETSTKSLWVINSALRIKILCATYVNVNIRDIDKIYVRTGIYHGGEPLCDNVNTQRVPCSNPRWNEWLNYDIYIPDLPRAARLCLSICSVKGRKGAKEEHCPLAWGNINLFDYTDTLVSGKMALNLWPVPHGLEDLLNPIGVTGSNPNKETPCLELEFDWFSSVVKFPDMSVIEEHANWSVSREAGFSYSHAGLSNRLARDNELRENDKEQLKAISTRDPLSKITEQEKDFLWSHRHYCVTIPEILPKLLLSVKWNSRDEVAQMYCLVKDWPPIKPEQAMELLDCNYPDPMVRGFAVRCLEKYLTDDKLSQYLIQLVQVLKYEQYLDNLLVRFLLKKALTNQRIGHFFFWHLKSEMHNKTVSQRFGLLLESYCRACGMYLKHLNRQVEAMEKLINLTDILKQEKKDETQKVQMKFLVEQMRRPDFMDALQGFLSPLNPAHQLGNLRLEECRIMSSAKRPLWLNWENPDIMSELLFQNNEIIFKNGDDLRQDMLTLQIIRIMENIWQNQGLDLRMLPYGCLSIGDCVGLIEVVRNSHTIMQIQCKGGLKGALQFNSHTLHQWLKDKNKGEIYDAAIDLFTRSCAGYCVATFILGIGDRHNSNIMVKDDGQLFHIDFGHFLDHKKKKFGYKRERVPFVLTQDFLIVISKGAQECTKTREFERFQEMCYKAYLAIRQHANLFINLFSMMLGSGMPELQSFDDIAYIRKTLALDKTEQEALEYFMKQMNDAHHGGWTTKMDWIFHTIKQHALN

Cn1cncc1[C@@](O)(COc1ccc(C#N)cc1-c1ccc(OC(F)(F)F)cc1)c1ccc(C#N)cc1 [A-108]
inactive: residual activity [1] 81% | residual activity [2] 69% | residual activity [3] 100% | inhibition [4] 25.8% | residual activity [5] 100% | residual activity [6] 95% | residual activity [7] 66% | residual activity [8] 77% | residual activity [9] 100% | residual activity [10] 87% | inhibition [11] -9.7% | residual activity [12] 95% | inhibition [13] -0.62% | residual activity [14] 100% | residual activity [15] 73% | residual activity [16] 100% | residual activity [17] 89% | residual activity [18] 92% | residual activity [19] 100% | residual activity [20] 100% | residual activity [21] 100% | residual activity [22] 100% | residual activity [23] 98%

Cn1cncc1[C@](O)(COc1ccc(C#N)cc1-c1ccc(OC(F)(F)F)cc1)c1ccc(C#N)cc1 [ABT-100]
inactive: residual activity [1] 80% | residual activity [2] 77% | residual activity [3] 72% | inhibition [4] -4.07% | residual activity [5] 75% | residual activity [6] 100% | residual activity [7] 82% | residual activity [8] 100% | residual activity [9] 58% | residual activity [10] 91% | inhibition [11] 6.8% | residual activity [12] 89% | inhibition [13] 17.6% | residual activity [14] 57% | residual activity [15] 83% | residual activity [16] 94% | residual activity [17] 100% | residual activity [18] 83% | residual activity [19] 92% | residual activity [20] 93% | residual activity [21] 78% | residual activity [22] 76% | residual activity [23] 100%
